From US11826347B2, “Anesthetic composition and method of anesthetizing the eye” (priority 2018, dated 2023)
Where a name gives a salt, the structure may show the parent alone.

What was measured:
[1] = in vivo; cited from earlier work
[2] = tested on: Dutch Belted rabbits; type: in vivo; settings: articaine 4%, 8%, or 12%, bilateral topical, two drops of 35 μL/eye, observed 24 hours
Experimental: Two subparts of one study were conducted on Dutch Belted rabbits, namely, an ocular tolerability study followed by an ocular biodistribution study.
(§1) In the ocular tolerability study, a total of twelve male Dutch Belted rabbits divided randomly into four groups, were administered a placebo of phosphate buffered saline (PBS) or articaine at 4%, 8%, or 12% respectively. […] Ophthalmic examinations were performed on dose tolerability animals (Groups 1 through 4) predose and at 5, 10, and 20 minutes, and at 1, 2, 4, and 24 hours post the second eye drop administration in each eye using the modified Hackett-McDonald Scoring System. Following the modified Hackett-McDonald Scoring, local anesthetic effect was monitored in each eye by Cochet-Bonnet esthesiometry predose and at approximately 5, 10, and 20 minutes, and 1 hour following administration of the second eye drop in each eye. […] Topical ocular administration of articaine provided an anesthetic effect out to 20 minutes postdose with no notable tolerability issues.

[3] = in vivo; settings: male, Dutch Belted, rabbit, topical or ocular
Experimental: (§2) In the ocular biodistribution study, after a minimum of 72 hours following the completion of the ocular tolerability study, the twelve rabbits were re-assigned to Group 5 for the ocular biodistribution study. Group 6 was added and consisted of 3 naïve rabbits. Group 6 was included to evaluate the potential carryover effect of articaine over a 72 hour period post treatment. Group 5 and 6 animals were administered articaine at 8% and 12% w/v, respectively. Doses were administered via bilateral topical administration (two drops of 35 μL/eye). Group 5 animals were sacrificed at 10 minutes, and 1, 4 and 8 hours post treatment (N=3 at each time point). Group 6 rabbits were sacrificed at 24, 48 and 72 hours post treatment (N=1 at each time point). Just prior to sacrifice blood samples were collected from each animal. Animals were then euthanized and aqueous humor, conjunctivas (palpebral and bulbar), lens, cornea, vitreous humor, iris-ciliary body [ICB], optic nerve, lacrimal gland, retina, and choroid were collected.
(§3) The objectives of this study were to determine the tolerability of placebo and Articaine HCl ophthalmic solutions at concentrations of 4, 8, and 12% (w/v) following topical eye drop administration, and to determine the ocular pharmacokinetics and biodistribution of articaine and articainic acid following topical eye drop administration of 8% Articaine HCl ophthalmic solution.

[4] = tested on: Dutch Belted rabbits; experiment: Local anesthetic effect by Cochet-Bonnet esthesiometry; type: in vivo; settings: topical ocular administration, two drops of 35 μL/eye
Experimental: as §1

[5] = rabbit, in vivo
Experimental: as §2, §3

[6] = Ocular biodistribution / pharmacokinetics study
Experimental: as §2, §3

| Molecule | excreted as the metabolites [1] | protein binding [1] | renally excreted unchanged [1] | tolerability / treatment related adverse effects [2] | Tmax [3] | Cmax ([3]; Plasma Cmax) | anesthetic effect, time postdose [4] | systemic exposure, as indicated by plasma AUC [5] | residual concentrations in ocular matrices ([6]; 12% articaine topical, 24, 48, and 72 hours postdose) | ratio of AUC0-last articainic acid over AUC0-last articaine ([6]; all other matrices) | ratio of AUC0-last articainic acid over AUC0-last articaine ([6]; cornea) | T1/2 (half-life) ([6]; plasma) | ratio of AUC0-last articainic acid over AUC0-last articaine ([6]; plasma) | Plasma Cmax ([6]; plasma, 8% articaine topical, two drops of 35 μL/eye) |
| --- | --- | --- | --- | --- | --- | --- | --- | --- | --- | --- | --- | --- | --- | --- |
| CCCNC(C)C(=O)Nc1c(C)csc1C(=O)OC (centres unmarked) [articaine, 4-methyl-3 (2-[propylamino]proprioamido)-2-thiophenecarboxylic acid, methyl ester hydrochloride] | 89% | highly protein bound | Five to ten | well tolerated in all animals at concentrations up to 12% w/v | 10 min | 457 ng/mL | 20 min | minimal |  |  |  |  |  |  |
| Articainic acid |  |  |  |  |  |  |  |  | Low residual concentrations | < 0.7 | approximately 2 | approximately 1.5 hours | approximately 2 | 217 ng/mL |
